Where two headings read alike, the source gives them in different places.
Legend:
[1] = test system: osteoarthritic rats (unilateral i.a. MIA injection); experiment: Hind limb grip force (activity-induced pain) 20 days after i.a. MIA injection; format: in vivo, rat
Procedure: For evaluating the effects of reference analgesic drugs experiments were performed 20 days after induction of OA. Assessment of hind limb grip force was used as a behavioral measure of activity induced pain in adult OA rodents. Measurements of peak hind limb grip force were conducted by recording the maximum compressive force exerted on the hind limb strain gauge setup, in a commercially available grip force measurement system (Columbus Instruments, Columbus, Ohio). A group of age matched naïve animals were added to each experiment and the data obtained from the different dose groups for the compound being tested were compared to the naïve group.
(§1) All experiments have been approved by the Institutional Animal Care and Use Committee (IACUC) at Abbott Laboratories and are in strict accordance with the ethical guidelines laid down by the International Association for the Study of Pain (IASP) (Zimmermann, 1983) for the care and use of laboratory animals. […] Following injection, the animals were allowed to recover from the effects of anesthesia (usually 5-10 mins) before returning to their home cages. […] Animals were euthanized by CO2 inhalation on day 20. The injected knee joints were dissected and immediately fixed in 10% phosphate buffered formalin. The samples were then decalcified in 5% formic acid for 3 days, routinely processed and then embedded in paraffin wax. Frontal histologic sections of the femorotibial joints (6 μm) were prepared, stained with toluidine-blue and examined with a light microscope (Guzman et al., 2003).
(§2) Measurements of peak hind limb grip force were conducted by recording the maximum compressive force exerted on the hind limb strain gauge setup, in a commercially available grip force measurement system (Columbus Instruments, Columbus, Ohio). […] Additional tests were performed 1, 2, 4, 7, 10, 13, 17, 21, 24, and 28 days following the injections.
A group of age matched naïve animals were added to each experiment and the data obtained from the different dose groups for the compound being tested were compared to the naïve group. The vehicle control group for each compound being tested was assigned 0% whereas the naïve group was assigned as being 100% (normal). The % effects for each dose group was then expressed as % return to normalcy compared to the naïve group (=[100÷% increase from vehicle for naive group]×% increase from vehicle for treatment group) (% increase from vehicle=[Treatment CFmax−Vehicle CFmax)/Vehicle CFmax]×100). All experiments evaluating drug effects in this model were conducted in a randomized blinded fashion.

[2] = test system: rats; conditions: 28 days after unilateral i.a. injection, 3 mg; baseline 1090.17±52.85 g
Procedure: as §1, §2

[3] = test system: naïve rats; experiment: Hind limb grip force in naïve (non-MIA injected) rats
Procedure: as §2

[4] = Rattus norvegicus, po, 480 h; read-out: % effect (% return to normalcy of grip force)
[5] = Rattus norvegicus, po, 480 h; read-out: CI95% of ED50
[6] = Rattus norvegicus, po, 480 h; read-out: ED50, reversal of decreased grip force

Work on `CC(C)Cc1ccc(C(C)C(=O)O)cc1` (stereo not shown) [ibuprofen] yielded an inhibition in vivo at 300 µmol/kg [1, 4] of 29 ± 8%.
`CC(=O)Nc1ccc(O)cc1` [acetaminophen] showed an inhibition in vivo at 300 µmol/kg [1, 4] of 23 ± 11%.
For sodium monoiodoacetate [MIA], the “hind limb grip force (GF)” value [2] was 420.96 ± 25.07 g.
Work on `O=C(O)Cc1ccccc1Nc1c(Cl)cccc1Cl` [diclofenac] yielded an inhibition in vivo at 100 µmol/kg [1, 4] of 77 ± 5%, an ED50 [1, 5] of 22 to 38 µmol/kg and an ED50 [1, 6] of 29 µmol/kg.
In the case of `COc1cccc(C2(O)CCCCC2CN(C)C)c1` (stereo not shown) [tramadol], the inhibition in vivo at 100 µmol/kg ([1]; Rattus norvegicus, ip, 480 h, read-out: % effect (% return to normalcy of grip force)) is reported as 79 ± 5%, the ED50 ([1]; Rattus norvegicus, ip, 480 h, read-out: CI95% of ED50) is reported as 32 to 54 µmol/kg and the ED50 ([1]; Rattus norvegicus, ip, 480 h, read-out: ED50, reversal of decreased grip force) is reported as 40 µmol/kg.
In the case of `COc1ccc2c(c1)c(CC(=O)O)c(C)n2C(=O)c1ccc(Cl)cc1` [indomethacin], the inhibition in vivo at 85 µmol/kg [1, 4] is reported as 44 ± 6%.
`NCC1(CC(=O)O)CCCCC1` [gabapentin] gave an inhibition in vivo at 500 µmol/kg ([1]; Rattus norvegicus, po, 480 h, read-out: % effect (% return to normalcy of grip force)) of 61 ± 8%, an ED50 ([1]; Rattus norvegicus, po, 480 h, read-out: CI95% of ED50) of 100 to 295 µmol/kg and an ED50 ([1]; Rattus norvegicus, po, 480 h, read-out: ED50, reversal of decreased grip force) of 159 µmol/kg.
For `CN1CC[C@]23c4c5ccc(O)c4O[C@H]2[C@@H](O)C=C[C@H]3[C@H]1C5` [morphine], the inhibition in vivo at 8 µmol/kg ([1]; Rattus norvegicus, sc, 480 h, read-out: % effect (% return to normalcy of grip force)) was 34 ± 3%, the “reduction of grip force vs untreated naïve rats” value ([3]; 8 μmol/kg (6 mg/kg) s.c.) was 13±3% and the “reduction of grip force vs untreated naïve rats” value ([3]; 13 μmol/kg (10 mg/kg) s.c.) was 52±3%.
`Cc1ccc(-c2cc(C(F)(F)F)nn2-c2ccc(S(N)(=O)=O)cc2)cc1` [celecoxib] was tested, and the “% effect, chronic dosing” value ([1]; 10 μmol/kg p.o. b.i.d. for 12 days beginning 7 days after MIA) was 33±3.0%, the “% effect, acutely dosed group of chronic study” value ([1]; 10 μmol/kg p.o., acute) was 9±3% and the “% effect, chronic dosing” value ([1]; 30 μmol/kg p.o. b.i.d. for 12 days beginning 7 days after MIA) was 67±3%. The “% effect, acutely dosed group of chronic study” value ([1]; 30 μmol/kg p.o., acute) was 42±3%, the “% effect, acute positive control of chronic study” value ([1]; 100 μmol/kg p.o., acute) was 88±4% and the inhibition in vivo at 100 µmol/kg [1, 4] was 87 ± 6%. It also gave an ED50 [1, 5] of 16 to 42 µmol/kg and an ED50 [1, 6] of 27 µmol/kg.
`Nc1nnc(-c2cccc(Cl)c2Cl)c(N)n1` [Lamotrigine, lamotrigine] was tested, and the inhibition in vivo at 100 µmol/kg [1, 4] was 30 ± 3%.
